These results are taken from PMC11083148, “Structure–Activity Relationship Studies on Highly Functionalized Pyrazole Hydrazones and Amides as Antiproliferative and Antioxidant Agents” (International Journal of Molecular Sciences, 2024).

For data set [1], the system named is A549. Briefly: MTT assay, antiproliferative activity. The format is cell-based. Conditions: Homo sapiens, 48h, read-out: Mean Growth Percentage. In outline:
(§1)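 Cells plated 16 h, then exposed to compounds at 10 μM final for 48 h at 37 °C, 5% CO2. MTT added for 4 h, formazan dissolved in DMSO, absorbance read at 570 nm; values as percent of DMSO-only control, mean of three experiments in six replicates.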
For orientation: Formazan colour is commonly taken as a measure of viable cells.

For data set [2], the system named is Hep-G2. Briefly: MTT assay, antiproliferative activity. It counts as cell-based. Particulars: Homo sapiens, HepG2, 48h. In outline:
as §1

In data set [3] the test system is MDA-MB231. Briefly: MTT assay, antiproliferative activity. The format is cell-based. Particulars: Homo sapiens, MDA-MB-231, 48h. In outline: as §1
Data set [4] has as its system SK-BR3. Briefly: MTT assay, antiproliferative activity. It counts as cell-based. Conditions: Homo sapiens, SK-BR-3, 48h. In outline: as §1
The subject of data set [5] is HeLa. Briefly: MTT assay, antiproliferative activity. It counts as cell-based. Conditions: Homo sapiens, 10 µM, 48h, read-out: Mean Growth Percentage.
Data set [6] concerns MCF7. Briefly: MTT assay, antiproliferative activity. The format is cell-based. Particulars: Homo sapiens, 10 µM, 48h.
For data set [7], the system named is SKMEL28. Briefly: MTT assay, antiproliferative activity. The format is cell-based. Particulars: Homo sapiens, SK-MEL-28, 10 µM, 48h.
Data set [8] has as its system SKOV3. Briefly: MTT assay, antiproliferative activity. The format is cell-based. Conditions: Homo sapiens, SK-OV-3, 10 µM, 48h.
Data set [9] concerns GM-6114. Briefly: MTT assay, cytotoxicity on normal fibroblasts. It counts as cell-based. Conditions: human, 48 h, 10 µM.
Data set [10] has as its system washed platelets. Briefly: Platelet aggregation (thrombin-induced, Born's method). It counts as cell-based. Particulars: Homo sapiens, 0.1 U/mL thrombin, mean ± SD, read-out: IC50 Aggregation inhibition. In outline:
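Washed human platelets (3.0 × 10^8/mL) were preincubated with compound at 37 °C for 3 min. Aggregation was then triggered with 0.1 U/mL thrombin and measured by Born's turbidimetric method, with IC50 values calculated from the response.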

Data set [11] concerns washed platelets. Briefly: ROS assay in platelets (DCFH-DA, thrombin-stimulated). The format is cell-based, human. Conditions: Homo sapiens, Platelet, 0.1 U/mL thrombin, mean ± SD, read-out: IC50 ROS production inhibition. Put shortly:
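Washed human platelets (1.0 × 10^8/mL) in pH 7.4 HEPES buffer were pre-incubated 15 min at 37 °C with compound, then stimulated with 0.1 U/mL thrombin. ROS was read as DCF fluorescence from DCFH-DA by flow cytometry. IC50 comes from three-point concentration-response nonlinear regression versus saline control, mean of six experiments.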

Data set [12] can be described thus: DPPH radical-scavenging activity. It counts as physicochemical. On the set-up: AA (%), percentage of antioxidant activity: concentration or dose not given beside the values. Conditions: mean ± SD, n = 2. Here is the method:
The antioxidant activity of the representative compounds of the two series (namely, acylhydrazones 10b, 11a, 11d, 12d, 13d, and amides 14, 22) was measured in vitro using the 2,2-diphenyl-1-picrylhydrazyl (DPPH) assay. The results were calculated as Trolox equivalent and expressed as a percentage of antioxidant activity (AA) (Table 3). […] Derivatives 10b and 12d were endowed with the highest antioxidant activity, thus highlighting the relevance of both pyrazole N1 and acylhydrazone substituents on compounds’ radical scavenging properties.
Compounds 10b, 11a, 11d, 12d, 13d, 14, and 22 (ca. 3 mg) were dissolved in DMSO (1 mL), and then 100 µL of this solution was mixed with 3.9 mL of DPPH methanol solution (65 µM). Absorbance was measured at 517 nm after reacting for 30 min in the dark. The linear calibration curve was obtained using Trolox standards (ranging between 20 and 200 mg/L, R^2 = 0.9955). The result was calculated as Trolox equivalent in mg/L, and the percentage of antioxidant activity (AA%) was calculated from the ratio of decreasing absorbance of sample solution (A0 − As) to absorbance of blank DPPH solution (A0), as expressed in Equation (1). (1) AA%=A0−As/A0×100
All analyses were carried out in duplicate (n = 2), and values are given as means ± standard deviation (SD).
A general note: Loss of DPPH colour is used to gauge radical scavenging.

On the set-up of data set [13]: method as in PMID 32932211. Conditions: ABTS scavenging assay; cited from earlier work.

The IC50 is the concentration that gives 50% inhibition. In general, melting point refers to the temperature, or range, at which the solid turns liquid. `COc1ccc(/C=N/NC(=O)c2c(N)nn(C)c2Nc2ccccc2)cc1OCc1ccccc1` [11d, (E)-3-amino-N′-(3-(benzyloxy)-4-methoxybenzylidene)-1-methyl-5-(phenylamino)-1H-pyrazole-4-carbohydrazide]: the melting point was in the range of 183 to 186 °C. Also, the activity at 10 µM in [1] came to 101%. The same compound showed a Mean growth percentage at 10 µM in [2] of 111%. In addition, in data set [3], the Mean growth percentage at 10 µM worked out at 98.6%. Besides, the Mean growth percentage at 10 µM in data set [4] is 90.2%. The activity at 10 µM in data set [5] came to 95.2%. Moreover, the mean growth percentage (cell growth remaining vs control) at 10 µM in [6] was 82.9%. The compound further showed a Mean growth percentage at 10 µM in data set [7] of 89%. The compound also returned a Mean growth percentage at 10 µM in data set [8] of 103%. In addition, the “Mean Growth Percentage” value in data set [9] is recorded as 99.22%. Also, the IC50 in data set [10] came out at 890 ± 19 µM. Also, in data set [11], the IC50 turned out to be 182 ± 11 µM. In addition, in data set [12], the “AA (%), percentage of antioxidant activity” value (“AA (%), percentage” below) is listed as 15.53 ± 0.24% and the “DPPH (%)” value is 84.47 ± 0.24%.

In turn, `COc1ccc(/C=N/NC(=O)c2c(Nc3ccccc3)nn(CC(O)c3ccccc3)c2N)cc1OCc1ccccc1` (stereo not drawn) [13d, (E)-5-amino-N′-(3-(benzyloxy)-4-methoxybenzylidene)-1-(2-hydroxy-2-phenylethyl)-3-(phenylamino)-1H-pyrazole-4-carbohydrazide] registered a melting point of 170 to 173 °C. The activity at 10 µM in data set [1] came to 90.4%. This compound also showed a Mean growth percentage at 10 µM in [2] of 120%. Besides, the Mean growth percentage at 10 µM in [3] is 93.8%. This compound also came in with a Mean growth percentage at 10 µM in [4] of 97.9%. In data set [5], the activity at 10 µM turned out to be 96.7%. In addition, the mean growth percentage (cell growth remaining vs control) at 10 µM in [6] was found to be 108%. The Mean growth percentage at 10 µM in data set [7] came to 93.9%. The compound also came in with a Mean growth percentage at 10 µM in data set [8] of 112%. Further, the “Mean Growth Percentage” value in data set [9] is on record as 95.39%. The IC50 in data set [10] was 437 ± 25 µM. For the same compound, the IC50 in data set [11] was 405 ± 29 µM. In addition, in data set [12], the “AA (%), percentage” value amounted to 56.29 ± 1.18% and the “DPPH (%)” value was 43.71 ± 1.18%.

As to `Nc1c(C(F)(F)F)n[nH]c1-c1ccccc1` [IIa], in [13], the IC50 was 14.1 µM and the “Trolox equivalent antioxidant capacity (TEAC)” value is on record as 1.35.

`Nc1c(C(F)(F)F)n[nH]c1-c1cccs1` [IIb]: in data set [13], the IC50 was 17.6 µM and the “Trolox equivalent antioxidant capacity (TEAC)” value is given as 1.10.

Take `COC(=O)c1c(NC(=O)c2cc(OC)c(OC)c(OC)c2)n[nH]c1Nc1ccccc1` [compound 14, Methyl 5-(phenylamino)-3-(3,4,5-trimethoxybenzamido)-1H-pyrazole-4-carboxylate]: the melting point is 164 to 166 °C. For the same compound, in [1], the activity at 10 µM is 35.1%. This compound also yielded a Mean growth percentage at 10 µM in [2] of 67.2%. In addition, in [3], the Mean growth percentage at 10 µM came to 57%. For the same compound, the Mean growth percentage at 10 µM in data set [4] was found to be 53.8%. Also, in [5], the activity at 10 µM was 9.45%. The mean growth percentage (cell growth remaining vs control) at 10 µM in [6] was 66.1%. For the same compound, the Mean growth percentage at 10 µM in data set [7] is 41.5%. Moreover, the Mean growth percentage at 10 µM in [8] is 38.5%. The “Mean Growth Percentage” value in data set [9] is recorded as 39.31%. The IC50 in data set [10] came out at 365 ± 28 µM. Besides, the IC50 in data set [11] was 387 ± 35 µM. For the same compound, in data set [12], the “AA (%), percentage” value is on record as 3.62 ± 0.08% and the “DPPH (%)” value is recorded as 96.38 ± 0.08%.

Take `CCOC(=O)c1c(NC(=O)c2cc(OC)c(OC)c(OC)c2)nn(C)c1Nc1ccccc1` [compound 22, Ethyl 1-methyl-5-(phenylamino)-3-(3,4,5-trimethoxybenzamido)-1H-pyrazole-4-carboxylate]: the melting point was 135 to 138 °C. Further, the activity at 10 µM in [1] was determined as 106%. In [2], this compound registered a Mean growth percentage at 10 µM of 102%. For the same compound, the Mean growth percentage at 10 µM in data set [3] came to 140%. In addition, in [4], the Mean growth percentage at 10 µM came out at 103%. Further, in data set [5], the activity at 10 µM is 109%. Also, in [6], the mean growth percentage (cell growth remaining vs control) at 10 µM worked out at 115%. Moreover, the Mean growth percentage at 10 µM in data set [7] amounted to 84.1%. In [8], the Mean growth percentage at 10 µM was found to be 94.2%. In [9], the “Mean Growth Percentage” value is on record as 57.94%. Moreover, in data set [10], the IC50 worked out at 249 ± 22 µM. Moreover, in data set [11], the concentration for half-maximal inhibition (IC50) was found to be 313 ± 25 µM. Also, in data set [12], the “AA (%), percentage” value is reported as 2.39 ± 0.24% and the “DPPH (%)” value is 97.61 ± 0.24%.
